Compound `O=c1[nH]c2ccc(OCCCCN3CCC(c4cccc(Cl)c4Cl)CC3)cc2[nH]1` has a melting point of 180 to 182 °C.
`O=c1ccc(-c2ccc(Cl)c(C(F)(F)F)c2)n[nH]1` gave a melting point of 249 to 251 °C.
Compound `Fc1ccccc1-c1ccc(Cl)nn1` has a melting point of 95 to 96 °C.
`COC(=O)c1cc(Oc2ccc(Cl)c(C)c2)ccc1[N+](=O)[O-]` showed a melting point of 85 to 87 °C.
Work on `CCC(C)CNC(=S)NS(=O)(=O)c1sc(Cl)cc1N` (configuration not stated) yielded a melting point of 116 to 118 °C.
`CC1(C)Oc2cc(CCc3ccccc3)cc(O)c2C2=CC(=O)CCC21` (configuration not stated) gave a melting point of 233 to 235 °C.
Compound `COc1cc(Cc2cnc(N)nc2N)cc2c1NCCC2C` (configuration not stated) has a melting point of 221 to 223 °C.
`CC(CC(=O)c1ccc2c(c1)C(C)(C)CCC2(C)C)C(=O)O` (configuration not stated) showed a melting point of 165 °C.
`O=C(Nc1cnc2cc[nH]c2c1)c1cc2cc(F)ccc2n1Cc1cccc(F)c1` showed a melting point of 277 to 278 °C.
`N#Cc1cc(-c2ccccc2Cl)c[nH]c1=O` showed a melting point of 252 to 254 °C.
With `CCCCCCN(Cc1ccc(F)cc1)c1ccc(C(=O)OCC)cc1` the melting point was 41 to 42 °C.
Compound `O=C(Oc1ccccc1)c1ncn2c1[C@@H]1CCCN1C(=O)c1c(Cl)cccc1-2` has a melting point of 211 to 212 °C.
`COC(=O)C1=C(C)NC(C)=C(C(=O)OC)C1c1ccccc1CO` gave a melting point of 218 to 220 °C.
`COc1cc(Nc2nccc(-c3ccc(N4CCNCC4)nc3)n2)cc(OC)c1OC` showed a melting point of 103 °C.
Compound `C=C=Cc1c(C)nc2c(OCc3ccccc3C)cccn12` has a melting point of 88 to 89 °C.
Compound `COC(=O)c1ccc(C(O)c2cc3cc(Cl)ccc3n2S(=O)(=O)c2ccc(C(C)C)cc2)cc1` (configuration not stated) has a melting point of 71 °C.
Work on `COc1ccc(-c2csc(Nc3cnccn3)n2)cc1OC` yielded a melting point of 205 to 207 °C.
`COc1ccc(S(=O)(=O)OCC(=O)CC(C)C2CCCCC2)cc1` (configuration not stated) gave a melting point of 52 to 53 °C.
Compound `COc1ccc(CC(=O)Nc2cccc(/C=C/c3nc(C4CCC4)cs3)c2)c(C(=O)O)c1` has a melting point of 190 to 191 °C.
Compound `O=[N+]([O-])c1cc(CS(=O)(=O)CCO)ccc1CS(=O)(=O)CCO` has a melting point of 125 to 126 °C.
Work on `COc1ccc(Cc2nc3c(N)nc4ccccc4c3n2CCOc2ccccc2)cc1` yielded a melting point of 201 to 204 °C.
Work on `O=S(Cc1noc(Cc2ccccc2)n1)c1ccc(CCNC[C@H](O)COc2ccc(O)cc2)cc1` (some centres not stated) yielded a melting point of 51 to 57 °C.
Work on `CCCCN1C(=O)NC(=Cc2ccc(C=O)cc2)C1=O` yielded a melting point of 180 °C.
For `O=C(O)CCc1oc(-n2cccn2)nc1-c1ccc(Cl)cc1`, the melting point was 171 to 172 °C.
`COC(=O)c1cc2c(OC(C)C)cccc2o1` gave a melting point of 43 to 45 °C.
In the case of `C=Cc1ccc(P(c2ccccc2)c2ccccc2)cc1`, the melting point was 77 to 78 °C.
Compound `CC1(c2oncc2C(=O)c2ccc(S(C)(=O)=O)cc2C(F)(F)F)CC1` has a melting point of 141 to 142 °C.
With `O=C(CCl)N1CC=C(c2cccc(C(F)(F)F)c2)n2ncc(Br)c21` the melting point was 128 to 130 °C.
In the case of `CCC1(CO)COC(C(C)(C)Oc2ccc(Cl)cc2)=N1` (configuration not stated), the melting point was 94 to 95 °C.
In the case of `Cc1nc2ccc3c(c2o1)OC(CN1CCC(n2c(=O)[nH]c4ccccc42)CC1)CO3` (configuration not stated), the melting point was 218 to 220 °C.
Compound `CCCc1c(OCc2cccc(OCc3ccc4ccccc4n3)c2)ccc2c(=O)cc(C(=O)OCC)oc12` has a melting point of 120 to 121 °C.
For `COc1ccc(-c2nnc3c4ccccc4c(Nc4ccc(NC(=O)c5ccc(N6CCOCC6)cc5)cc4)nn23)cc1`, the melting point was 313 °C.
Work on `O=C(OC1CCCCC1=O)c1ccc([N+](=O)[O-])cc1` (configuration not stated) yielded a melting point of 124 to 125 °C.
With `O=C(Nc1nc(CN2CCC(c3c[nH]c4ccccc34)CC2)cs1)C(F)(F)F` the melting point was 244 to 247 °C.
For `O=C(O)CCN1C(=O)c2ccc([N+](=O)[O-])cc2C1=O`, the melting point was 206 to 208 °C.
`O=Cc1cccc2nc(-c3ccccc3)oc12` showed a melting point of 107 °C.
With `CCOC(CN1CCN(c2cccc(-n3cnc4cc(C(C)=O)ccc43)c2)CC1)=NO` the melting point was 154 to 156 °C.
`O=C1CCC(c2ccc(-n3cnc4ccccc43)cc2)=NN1` gave a melting point of 262 to 264 °C.
`OCC1OC(n2cnc3c(OCC4CC4)ncnc32)CC1F` (configuration not stated) showed a melting point of 100 °C.
With `C[C@@H](n1cnc2cc(Br)ccc2c1=O)[C@](O)(Cn1cncn1)c1ccc(F)cc1F` the melting point was 109 to 112 °C.
Work on `CC(=O)OCC(=O)NCCCn1c(-c2ccc(Br)cc2)csc1=Nc1ccccc1` yielded a melting point of 156 to 159 °C.
`Cc1ccc(C(=O)Nc2ccccc2N2CCN(Cc3ccc[nH]3)CC2)c(-c2ccc(C(F)(F)F)cc2)c1` gave a melting point of 196 to 198 °C.
In the case of `C=CCNC1=NS(=O)(=O)c2cnccc2N1`, the melting point was 206 to 208 °C.
With `Cc1cc(C)c2c(n1)N(CCN(C(C)C)C(C)C)C(=O)N(C)C2` the melting point was 97 to 99 °C.
Work on `CCOC(=O)CC(=O)CC(=O)c1cccnc1` yielded a melting point of 187 to 189 °C.
`O=C(NC1CCCCC1)NS(=O)(=O)c1cnccc1NC1CCCCCC1` gave a melting point of 165 to 169 °C.
Work on `COCC(OC(N)=O)c1nc2cc(F)c(OC(C)c3c(Cl)ccc(F)c3Cl)cc2s1` (configuration not stated) yielded a melting point of 200 to 205 °C.
`CCCc1cc2c(NC(=S)N3Cc4ccccc4CC3CCO)cccc2cn1` (racemic) showed a melting point of 175 °C.
Work on `N#Cc1c(O)c2sccc2[nH]c1=O` yielded a melting point of over 300 °C.
With `CCCc1c(OCCCOCCCOc2c(C(C)=O)ccc(OCC(=O)O)c2CCC)ccc(C(C)=O)c1O` the melting point was 86 to 90 °C.
With `COc1cc(C(=O)Nc2ccc(N3CCCC3)cc2C(C)=O)ccc1OCc1ccccc1` the melting point was 152 to 154 °C.
`COc1cc(C#CC(=O)c2ccccc2)cc(OC)c1OC` gave a melting point of 158 to 160 °C.
In the case of `O=C(Nc1cccc(O)c1)C(=O)N1CCC(Cc2ccc(F)cc2)CC1`, the melting point was 175 to 179 °C.
`COC(=O)[C@@H]1CCCN1c1ccc(C)c([N+](=O)[O-])c1O` showed a melting point of 111 to 114 °C.
In the case of `O=C1NCN(c2ccc(F)cc2)C12CCN(CCCn1c(=O)[nH]c3ccccc31)CC2`, the melting point was 215 °C.
`Cn1c([N+](=O)[O-])cnc1COc1ccc([N+](=O)[O-])cc1` gave a melting point of 150 °C.
`CN(Cc1ccccc1)Cc1c(-c2ccc(NC(=O)NCCO)cc2)sc2c1c(=O)n(-c1ccccc1)c(=O)n2Cc1c(F)cccc1F` showed a melting point of 220 to 222 °C.
Work on `Cn1cc(-c2cccc(N3CCc4c(cc5n4CCCC5)C3=O)c2CO)cc(Nc2ccc(C3CNC3)cn2)c1=O` yielded a melting point of 227 to 229 °C.
Compound `CCOC(=O)c1cnc2c(OC)cccc2c1Nc1ccc(O)cc1C` has a melting point of 277 to 279 °C.
With `COc1cc(C(=O)c2ccc(Cl)cc2)cc([N+](=O)[O-])c1O` the melting point was 128 to 131 °C.
With `CCC(O)(CC)c1ccc(-c2cc(-c3c[nH]nc3-c3cccc(C)n3)ccc2F)nc1` the melting point was 94 to 95 °C.
Compound `Cc1ccc2c(c1)C(CCCCN1CCN(c3cccc(Cl)c3)CC1)C(=O)N2` (configuration not stated) has a melting point of 122 to 124 °C.
For `CCCCOc1nc(N)c2[nH]c(=O)n(CCCNCc3cccc(C(=O)OC)c3)c2n1`, the melting point was 214 to 218 °C.
`COC(=O)c1cc(S(C)(=O)=O)ccc1OCc1ccccn1` gave a melting point of 189 to 192 °C.
With `Cc1ccc(S(=O)(=O)NC(=O)OCCc2ccc(-n3c(CCC(=O)N4CCCCC4)nc4cc(C(F)(F)F)c(Cl)cc43)cc2)cc1` the melting point was 210 °C.
Work on `CC(=O)N1c2c(ccc3c2nc(C)n3C)[C@@H]2O[C@@H]2[C@H]1c1ccccc1` yielded a melting point of 200 to 205 °C.
With `CC(=O)N(C(=O)c1ccccc1O)C(C)C(=O)O` (racemic) the melting point was 118 to 120 °C.
Work on `CCCCCNC(=O)N(C)c1cccc(-c2ccc(C=C(OC)C(=O)O)cc2OCCCC)c1` yielded a melting point of 61 °C.
Work on `CSC(=CC(=O)c1ccccc1Br)N1CCN2CCC1CC2` yielded a melting point of 107 to 108 °C.
`COc1cc(C2NC(C(=O)O)CS2)ccc1OCC(=O)NCCO[N+](=O)[O-]` (configuration not stated) showed a melting point of 151 to 152 °C.
With `Cn1c(=N)c(C(=O)NCCO)c(O)c2cc(Cl)ccc21` the melting point was 234 to 237 °C.
`COc1ccc(OC)c(P(=O)(C(=O)c2c(C)cc(C)cc2C)C(=O)c2c(C)cc(C)cc2C)c1` showed a melting point of 161 °C.
Compound `CC1(C)C=C(c2ncccn2)c2cc(C#N)ccc2O1` has a melting point of 108 to 110 °C.
For `Cn1nc(CO)cc1-c1ccccc1`, the melting point was 95 to 99 °C.
With `COC1CC(NC(C)=O)C(OC(=O)c2ccccc2)C(CBr)O1` (configuration not stated) the melting point was 173 °C.
Compound `COc1cc(C(=O)O)ccc1CN1CCOc2ccc(NC(=O)OC3CCCC3)cc21` has a melting point of 221 to 222 °C.
`Clc1ccc(Nc2nc3ccccc3c3[nH]c(C4CCCC4)nc23)cc1` gave a melting point of 189 to 190 °C.
Compound `COc1ccc(C2=CCN(Cc3ccccc3)CC2)cc1OC` has a melting point of 94 to 96 °C.
In the case of `Nc1nnc2c3c(c(N4CCOCC4)nn12)CCCC3`, the melting point was 260 to 262 °C.
`O=C(O)c1cnc2c3ccccc3ccn2c1=O` gave a melting point of 219 to 231 °C.
For `CCOC(=O)C(=NOCCI)c1csc(NC(c2ccccc2)(c2ccccc2)c2ccccc2)n1`, the melting point was 110 °C.
For `CCOC(=O)c1cn(C)c2nc(Cl)ncc2c1=O`, the melting point was 205 °C.
With `COC(=O)Cc1c(C(=O)OC)ccn1CCBr` the melting point was 129 to 130 °C.
Work on `COC(=O)NNc1ccc(C)c2c1OC(C)C2` (configuration not stated) yielded a melting point of 62 to 65 °C.
For `CN1Cc2c(C(=O)OCC3CC3)ncn2-c2ccc(F)cc2C1=O`, the melting point was 156 to 157 °C.
With `COc1ccccc1CNC(=O)C1N(C(=O)C(O)C(Cc2ccccc2)NC(=O)c2cccc(O)c2C)CSC1(C)C` (configuration not stated) the melting point was 123 to 125 °C.
`CCOc1cccc(NC(=O)Nc2ccc(N3CCN(C(=O)Nc4cc(OCCO)ccc4Cl)CC3)nc2)c1` gave a melting point of 140 to 143 °C.
`Cc1cc(-c2cccc(C(=O)CC(=O)Nc3cc(-c4ccccc4F)ccc3NC(=O)OC(C)(C)C)c2)on1` gave a melting point of 158 to 160 °C.
`CNc1cccc(F)c1C#N` gave a melting point of 130 to 132 °C.
Compound `N#CCc1c(Cl)nc(-c2ccc([N+](=O)[O-])cc2)n1Cc1ccccc1` has a melting point of 125 to 128 °C.
`c1cc(-c2nc3c4c(ncc3[nH]2)CCOC4)no1` gave a melting point of over 300 °C.
Compound `O=C1C=C(NC(=O)C(=O)c2cn(Cc3c(F)cccc3F)c3ccccc23)CO1` has a melting point of 252 to 256 °C.
Work on `C#CCc1c(C)nc2c(OCc3ccccc3C)cccn12` yielded a melting point of 138 to 140 °C.
For `O=C(O)[C@H](Cc1c[nH]c2ccccc12)NC(=O)C1(NC(=O)[C@@H](S)C2CCOCC2)CCCC1`, the melting point was 212 to 215 °C.
`CCOCc1cc(O)cc2cc(-c3ccc(O)cc3)oc12` gave a melting point of 166 to 168 °C.
`O=C(Nc1ccc(-n2nc(C(F)(F)F)cc2C(F)(F)F)cc1)c1c(F)cccc1F` gave a melting point of 127 to 128 °C.
`NS(=O)(=O)c1ccc(C2=C(c3ccc(F)cc3)CC3(CC3)C2)cc1` gave a melting point of 131 to 133 °C.

From a melting point compilation (Tetko et al.; mined from patent text by program, amines drawn as free bases though some values may be those of a salt)
